Patent US7282595B2, “Antitumor benzoylsulfonamides” (Eli Lilly and Company, priority 2003, dated 2007)

Tested on: Human HCT116 colon carcinoma cells
Experiment: HCT116 Colon Carcinoma Cell Growth Inhibition
Assay type: cell-based
Conditions: 72 hr exposure, WST-1 growth fraction
Protocol: HCT116 Colon Carcinoma Cell Growth Inhibition
Human HCT116 colon carcinoma cells were grown monolayer culture in RPMI 1640 medium supplemented with 10% fetal bovine serum and 1% penicillin-streptomycin (GibcoBRL, Grand Island, N.Y.). HCT116 cells in exponential growth phase were exposed to various concentrations of the test compounds at 37° C. for 72 hr in 5% carbon dioxide/air. After exposure to the agent, the cells were washed with 0.9% phosphate buffered saline. Growth inhibition was determined using WST-1 cell proliferation reagent as described above. The results are expressed as the growth fraction of treated cells compared with control cultures. Representative compounds of the present invention were tested for efficacy against the human colon HCT116 tumor cells.

| IC50 | Compound |
| --- | --- |
| 4.1 µM | O=C(NS(=O)(=O)c1ccc2c(c1)OCCO2)c1ccc(Cl)cc1Cl [Example 23, N-[2,4-dichlorobenzoyl]-2,3-dihydrobenzo[1,4]dioxane-6-sulfonamide] |
| 40 µM | N-[2,4-dichlorobenzoyl]-tetrahydrobenzofuran-5-sulfonamide [Example 24] |

Same assay, conditions: Homo sapiens, HCT-116, 72 hr exposure, WST-1 growth fraction

| Compound | IC50 |
| --- | --- |
| Cc1cc(Cl)ccc1C(=O)NS(=O)(=O)c1ccc2c(c1)OCO2 [Example 3, N-[4-chloro-2-methylbenzoyl]-benzo[1,3]dioxole-5-sulfonamide] | 6.4 µM |
| Cc1ccc(C(=O)NS(=O)(=O)c2ccc3c(c2)OCO3)c(Br)c1 [Example 5, N-[4-methyl-2-bromobenzoyl]-benzo[1,3]dioxole-5-sulfonamide] | 8.5 µM |
| O=C(NS(=O)(=O)c1ccc2c(c1)OCO2)c1ccc(Br)cc1Cl [Example 7, N-[4-bromo-2-chlorobenzoyl]-benzo[1,3]dioxole-5-sulfonamide] | 13.9 µM |
| O=C(NS(=O)(=O)c1ccc2ncsc2c1)c1ccc(Cl)cc1Cl [Example 18, N-[2,4-dichlorobenzoyl]-benzothiazole-6-sulfonamide] | 14.2 µM |
| CN1CCc2ccc(S(=O)(=O)NC(=O)c3ccc(Cl)cc3Cl)cc21 [Example 26, N-[2,4-dichlorobenzoyl]-1-methyl-2,3-dihydro-1H-indole-6-sulfonamide] | 10 µM |
| O=C(NS(=O)(=O)c1ccc2c(c1)CC=C2)c1ccc(Cl)cc1Cl [Example 27, N-[2,4-dichlorobenzoyl]-3H-indene-5-sulfonamide] | 3.2 µM |
| O=C(NS(=O)(=O)c1ccc2c(c1)CCC2)c1ccc(Cl)cc1Cl [Example 28, N-[2,4-dichlorobenzoyl]-indane-5-sulfonamide] | 3.2 µM |
| Cn1c(S(=O)(=O)NC(=O)c2ccc(Cl)cc2Cl)cc2ccccc21 [Example 31, N-[2,4-dichlorobenzoyl]-1-methyl-indole-2-sulfonamide] | 4.6 µM |

Next, values leading:

| IC50 | Compound |
| --- | --- |
| 9.6 µM | Cc1cc(Cl)ccc1C(=O)NS(=O)(=O)c1ccc2c(c1)CCO2 [Example 1, N-[4-chloro-2-methylbenzoyl]-2,3-dihydrobenzofuran-5-sulfonamide] |
| 3.9 µM | O=C(NS(=O)(=O)c1ccc2c(c1)OCO2)c1ccc(Cl)cc1Br [Example 2, N-[4-chloro-2-bromobenzoyl]-benzo[1,3]dioxole-5-sulfonamide] |
| 7.5 µM | Cc1cc(Br)ccc1C(=O)NS(=O)(=O)c1ccc2c(c1)OCO2 [Example 4, N-[4-bromo-2-methylbenzoyl]-benzo[1,3]dioxole-5-sulfonamide] |
| 4.6 µM | O=C(NS(=O)(=O)c1ccc2c(c1)OCO2)c1ccc(Br)cc1Br [Example 6, N-[2,4-dibromobenzoyl]-benzo[1,3]dioxole-5-sulfonamide] |
| 21.8 µM | O=C(NS(=O)(=O)c1cc2ccccc2s1)c1ccc(Cl)cc1Cl [Example 16, N-[2,4-dichlorobenzoyl]-benzo[b]thiophene-2-sulfonamide] |
| 19.8 µM | O=C(NS(=O)(=O)c1cc2ccccc2o1)c1ccc(Cl)cc1Cl [Example 17, N-[2,4-dichlorobenzoyl]-benzofuran-2-sulfonamide] |
| 2.1 µM | O=C(NS(=O)(=O)c1ccc2c(c1)OCO2)c1ccc(Cl)cc1Cl [Example 25, N-[2,4-dichlorobenzoyl]-benzo[1,3]dioxole-5-sulfonamide] |
| 26.2 µM | O=C(NS(=O)(=O)c1ccc2c(c1)CCC2=O)c1ccc(Cl)cc1Cl [Example 29, N-[2,4-dichlorobenzoyl]-1-oxo-indane-5-sulfonamide] |
